Entries after “also recorded” stand apart in the source; their conditions may differ. Structures can show the parent of a compound that is named as a salt. Where two headings read alike, the source gives them in different places.
Assays:
[1] = system: SH-SY5Y cells overexpressing unlabeled wild-type (WT) αSN; assay: CytoTox-Glo cytotoxicity assay: rescue of αSN-induced cytotoxicity; type: cell-based, human; conditions: for EC50: read-out: EC50, protection of SH-SY5Y cells from αSN-induced death; for rescue of αSN-induced cytotoxicity: dose response, 48-h exposure; for rescue of toxicity in three-dose preliminary screen: three-dose assay
Procedure: Hit compounds were evaluated for rescue of αSN-induced cytotoxicity in using an SH-SY5Y neuroblastoma cell model of alpha-synucleinopathy[18],[69]–[72]. […] A seven-point CRC for RO, BAY, DEM, and Anle138b (positive control compound[41],[73]) was performed to determine IC50 for each compound. […]
Cell cytotoxicity was measured using the CytoTox-Glo (Promega Corporation) Luminescence Assay Kit. SH-SY5Y human neuroblastoma cells were plated at a density of 5 × 10^6 cells/plate in 100 mm plate (Corning) and transfected with unlabeled WT αSN or equivalent vector-only control for 24 h. The transfected cells were then plated at a density of 5000 cells/well in white solid 96-well plate (Corning) with a total volume of 100 μL, followed by treatment with hit compounds spanning a range of concentrations (0.1 nM to 100 μM), as well as DMSO-only controls, for another 48 h. After incubation, 50 μL of CytoTox-Glo Cytotoxicity Assay Reagent was added to all wells followed by mixing by orbital shaking and incubation in the dark for 15 min at RT. Luminescence readings were measured using a Cytation3 Cell Imaging Multi-Mode Reader luminometer (BioTek). After the first read, 50 μL of Lysis Reagent was added, incubated for 15 min at RT, and a second read performed. Total viable cellular luminance was determined by the difference between the first and second luminescence signal and total cellular viability is determined by normalizing to the no-treatment samples.

[2] = biological target: T1, αSN (15 μM monomeric αSN doped with 5% αSN PFF seeds) (Homo sapiens, UniProt P37840); assay: Seeded Thioflavin-T aggregation assay; type: biochemical; conditions: 15 μM αSN monomer + 5% PFF; for IC50: 37 °C, max ThT intensity
T1 construct: made in house; host or cells: Escherichia coli BL21(DE3), T7-7 plasmid
Procedure: Figure 11 and Supplementary Fig. 23 present results from a dose-response-seeded aggregation assay. Vehicle, control, and hit compounds were incubated with 15 µM αSN(m), doped with 5% freshly sonicated αSN PFF in PBS under mild agitation (Supplementary Fig. 23a). […] Titration of control and hit compounds were run in triplicate; representative traces of hit compounds are illustrated in Fig. 11a with a full summary of each titration detailed in Supplementary Fig. 23c–h. IC50 was determined for each compound by determining the max ThT intensity for each concentration (Fig. 11b).
Seeded ThT aggregation assay was performed using 15 μM monomeric αSN doped with 5% (0.75 μM sonicated αSN pre-formed fibril (PFF) seeds) in a 384-well plate under slow agitation (300 RPM) at 37 °C. a Control samples for the aggregation include PBS (black), αSN monomer (brown), 5% αSN PFF (red), and the 15 μM monomer+5% PFF mixture (orange). Dose-response curves were made with a titration of compounds. […] In contrast, RO and DEM both show potent effects relative to Baicalin and EGCG controls. BAY does have some response, but it lags behind other hit compounds. b Normalizing the initial peak in ThT data allows us to estimate an IC50 for each hit. […] Although there is a small trend with BAY, the data cannot be fit to resolve an IC50.
(§1) ThT (Sigma, product no. T3516) was dissolved in PBS buffer and was filtered through a 0.2-µm syringe filter to make a stock solution of 2.5 mM. Working ThT concentration was 20 µM. PFF seeds were produced via constant agitation of 1000 RPM at 37 °C (ThermoMixer-C, Eppendorf, Hauppauge, NY) of 500 µL of 350 µM αSN in PBS in a 2 mL tube for 5 days. PFFs were aliquoted and flash frozen and stored at −80 °C until further use. PFF seeds were rapidly thawed, diluted to 35 µM in PBS, and sonicated 120 pulses at 50% using a probe-tip sonicator following the established protocols. Master mix samples for each of the different ThT assays were prepared and dispensed in triplicate as 50 µL in 384-well flat, black-bottom polypropylene plates (PN 781209, Greiner Bio-One) and sealed with fluorescently transparent film. Conditions for non-seeded, seeded, and cell homogenate assays varied slightly.
Seeded ThT experiments were performed at a lower monomer concentration to preclude spontaneous αSN aggregation during the time course of the experiment. For both seeded and cell homogenate experiments, sample were prepared in PBS + 20 µM ThT with or without 15 µM αSN(m) +/− 5% PFF (0.75 µM). Additional control samples of 15 µM PFF and 0.75 µM PFF were also prepared. All empty wells were filled with PBS for a thermal sink and to help prevent evaporation. Assay plates were prepared as pre-cellular FRET dose response above. Dose response was done across 8 concentrations (10 nM to 50 µM). The assay was run at 37 °C with mild shaking (200 RPM) in a Cytation3 plate reader. The ThT fluorescence was monitored with excitation filter of 450 nm and emission filter of 490 nm. Readings were acquired every 20 min for a minimum of 24 h. Seeded ThT aggregation IC50 values were determined by first normalizing all ThT curves to the maximal signal at plateau for the αSN + 5% PFF + DMSO samples. The normalized fluorescence at each concentration was fit to the Hill equation to resolve an effective IC50 of seeded aggregation inhibition.

[3] = biological target: T2, recombinant αSN (Homo sapiens, UniProt P37840); assay: Non-seeded Thioflavin-T assay (monomer induced aggregation); type: biochemical; conditions: 140 μM αSN monomer, 70 μM compound (1:2), 900 RPM, 37 °C
T2 construct: made in house; host or cells: Escherichia coli BL21(DE3), T7-7 plasmid
Procedure: ThT aggregation assays monitor the kinetics and extent of fibril formation due to spontaneous and seeded aggregation[26],[92]–[95]. The cascade of spontaneous αSN fibrillization includes formation and maturation of oligomeric αSN assemblies[96],[97]. Figure 10 presents spontaneous ThT aggregation for αSN(m) (140 µM) with or without hit compounds RO, DEM, and Bay (70 µM; a sub-stoichiometric ratio, 1:2, compound:protein).
Fig. 10 Monomer induced aggregation of αSN (non-seeded Thioflavin-T assay). Recombinant αSN was incubated at 140 μM monomer (70 μM compound) under continuous shaking (900 RPM) at 37 °C. All three hit compounds modulated αSN fibrillization with RO having a more significant effect over Bay and DEM, respectively.
as §1
Non-seeded ThT master mix was prepared in cell culture PBS with 140 µM (2 mg/mL) αSN(m) and dispensed into compound plates at 70 µM final compound concentration (1:2 compound:protein ratio).

Row | IC50 [2] | ThT signal, spontaneous (non-seeded) aggregation [3] | effect on seeded aggregation ([2]; titration up to 50 μM) | Compound | EC50 ([1]; 72-h transfection, 48-h exposure to compound, seven-point CRC) | rescue of αSN-induced cytotoxicity [1] | rescue of toxicity in three-dose preliminary screen [1] | EC50 ([1]; Homo sapiens, SH-SY5Y, 72-h transfection, 48-h exposure to compound, seven-point CRC) | IC50 ([1]; Homo sapiens, SH-SY5Y, 72-h transfection, 48-h exposure to compound, seven-point CRC, read-out: IC50, inhibition of αSN-induced toxicity)
1 | 931 nM | significant ThT signal reduction | – | Nc1ccc(-c2nc3ccc(-c4nc5ccc(N)cc5[nH]4)cc3[nH]2)cc1 [RO, Ro 90–7501] | 78 nM | clear dose-dependent rescue of toxicity | strong response | – | –
2 | 1000 nM | lesser degrees of attenuation | – | CN(C)[C@@H]1C(O)=C(C(N)=O)C(=O)[C@@]2(O)C(O)=C3C(=O)c4c(O)ccc(Cl)c4[C@@H](O)[C@H]3C[C@@H]12 [DEM, Demeclocycline HCl] | – | clear dose-dependent rescue of toxicity | strong response | 65 nM | 65 nM
3 | – | lesser degrees of attenuation | cannot be fit | COC(=O)C1=C(C)NC(C)=C([N+](=O)[O-])C1c1ccccc1C(F)(F)F (racemic) [BAY, (±)-Bay K 8644] | – | reduced effect; also recorded: did not rescue | only mild recovery | – | –
